# Data as given in patent US20250064983A1, “COMPOSITIONS AND METHODS FOR TREATING A CARDIAC DISEASE” (The Children's Medical Center Corporation, priority 2022, published 2025).
# Entries after “also recorded” stand apart in the source; their conditions may differ.
# Columns and labels:
# [1] = tested on: LKB1 knockout mice; experiment: Example 5: beat-to-beat variability (EKG) in LKB1 knockout mice (AF model); format: in vivo, mouse
# Excerpt: Two different atrial fibrillation (AF) mouse models were used to test the efficacy of AIP×5 at treating AF of different origins. The two different AF mouse models were liver kinase B1 (LKB1) knock out mice and T-box transcription factor 5 (Tbx5) knock out mice.
# LKB1-floxed or Tbx5-floxed mice were used to test the efficacy of AIP×5. AAV-NPPA-Cre was then used to conditionally knock out LKB1 or Tbx5 from the atria of the mice. NPPA is an atria specific promoter, ensuring that Cre recombinase directed knockout of LKB1 or Tbx5 was restricted to the atria. AAV-NPPA-FP (fluorescent protein) was used as a control virus. AAV-NPPA-FP has no Cre, and therefore the gene of interest is not knocked out. Uninjected mice were also included as a control to account for any effects caused by AAV injections. AAV-cTnT-AIP×5 or AAV-cTnT-CN19o were both tested as potential therapies to AF.
# In short, P3 LKB1-floxed or Tbx5-floxed mice were injected (or not injected in the uninjected controls), and then EKG measurements of the mice were taken every two weeks starting at P14. At 12 weeks, the mice were sacrificed, and the sacrificed mice were tested for protein expression.
# AF was calculated using the standard deviation of the beat-to-beat timing differences. A high beat-to-beat variability when sedated was indicative of atrial misfiring.
# Statistical significance in the tests illustrated in FIGS. 10 and 11 was conducted using a 2-way Anova with post-hoc Dunnett's multiple comparisons to control (FP) group.
# [2] = target: CaMKIIδ (Homo sapiens, UniProt Q13557); experiment: in vitro inhibition of CaMKIIδ, bioluminescent ADP monitoring assay (ADP-GLO); format: biochemical; settings: purified polypeptides
# Method: FIG. 4 provides a schematic illustrating the design of an in vitro experiment to evaluate the impact of the purified polypeptides described in FIG. 2D and shown in the left portion of FIG. 4 on CaMKIIδ (an isomer of CaMKII) activity. Activity of CaMKIIδ was measured using a bioluminescent and homogeneous ADP monitoring assay for kinases (ADP-GLO™), which is described in Zegzouti, et al. “ADP-Glo: A Bioluminescent and Homogeneous ADP Monitoring Assay for Kinases,” ASSAY and Drug Development Technologies, December 2009, 560-572, doi.org/10.1089/adt.2009.0222, the disclosure of which is incorporated herein by reference in its entirety for all purposes.
# Inhibition of CaMKIIδ activity by the polypeptides was evaluated using a bioluminescent and homogeneous ADP monitoring assay for kinases (ADP-GLO™), which is described in Zegzouti, et al. “ADP-Glo: A Bioluminescent and Homogeneous ADP Monitoring Assay for Kinases,” ASSAY and Drug Development Technologies, December 2009, 560-572, doi.org/10.1089/adt.2009.0222, the disclosure of which is incorporated herein by reference in its entirety for all purposes (FIG. 4).
# [3] = tested on: RYR2^R176Q/QT and RYR2^R4560I/WT mice; experiment: Example 3: AAV vectors expressing AIP×5 in CPVT animal models; format: in vivo, mouse; settings: example written in present tense
# Excerpt: FIG. 6 provides a schematic showing administration of AAV vectors to RYR2^R176Q/WT and RYR2^R4560I/WT mice. […]. The top portion of FIG. 6 provides a schematic showing the components of polynucleotides of the AAV vectors. In FIG. 6, ITR represents “inverted terminal repeat,” CASQ2 represents a calsequestrin 2 enhancer, cTnT represents a “cardiac troponin” promoter, an INT represents a hemoglobin enhancer, AIP×5 represents a multimer containing five autocamtide-2-related inhibitory peptide (AIP) units, mScarlet represents the fluorescent polypeptide mScarlet, nls represents a nuclear localization signal, “stop” represents a stop codon, and WPRE represents a Woodchuck Hepatitis Virus (WHV) Posttranscriptional Regulatory Element.
# AAV vectors expressing AIP×5 or a negative control AIV vector expressing only mScarlet (see FIG. 6) are prepared and administered to RYR2^R176Q/QT and RYR2^R4560I/WT mice, which are animal models of catecholaminergic polymorphic ventricular tachycardia (CPVT). The efficacy of the vectors in reducing symptoms of CPVT is evaluated in the animal models.
# [4] = tested on: CaMKII; experiment: phosphorylation of phospholamban (PLB) at threonine-17 in whole heart lysates exposed to isoproterenol; format: in vivo, mouse; settings: exposed to isoproterenol (ISO), FIG. 3
# Method: FIG. 3 provides a chart, a capillary Western image, and a plot showing the effects of the indicated constructs, which are described in FIG. 2D, on CaMKII activity in vivo. To confirm suppression of CaMKII activation in vivo, phosphorylation of phospholamban (PLB) at threonine-17, a known target of CaMKII, was analyzed from whole heart lysates. The middle panel of FIG. 3 provides a capillary Western image showing glyceraldehyde-3-phosphate dehydrogenase polypeptide (GAPDH) expression in cells contacted (+) or not contacted (−) with isoproterenol (ISO), as well as the levels of phosphorylated PLB (pPLB) and non-phosphorylated PLB (PLB). The right panel of FIG. 3 provides a plot showing the ratio of pPLB to PLB in hearts treated with no ISO or with ISO and mCherry (the “ISO” sample), AIP, AIP×5, AIP-FKBP12.6, CN19o, CN19oX3, or CN19o-FKBP12.6, which are described in FIG. 2D.
# To confirm suppression of CaMKII activation in vivo, phosphorylation of phospholamban (PLB) at threonine-17, a known target of CaMKII, was evaluated in heart tissue from mice and whole heart lysates exposed to isoproterenol (ISO) (FIG. 3). Exposure of cardiac cells to ISO induced phosphorylation of PLB by CaMKII (FIG. 3).
# Sequence of CaMKIIδ (Q13557 1-478): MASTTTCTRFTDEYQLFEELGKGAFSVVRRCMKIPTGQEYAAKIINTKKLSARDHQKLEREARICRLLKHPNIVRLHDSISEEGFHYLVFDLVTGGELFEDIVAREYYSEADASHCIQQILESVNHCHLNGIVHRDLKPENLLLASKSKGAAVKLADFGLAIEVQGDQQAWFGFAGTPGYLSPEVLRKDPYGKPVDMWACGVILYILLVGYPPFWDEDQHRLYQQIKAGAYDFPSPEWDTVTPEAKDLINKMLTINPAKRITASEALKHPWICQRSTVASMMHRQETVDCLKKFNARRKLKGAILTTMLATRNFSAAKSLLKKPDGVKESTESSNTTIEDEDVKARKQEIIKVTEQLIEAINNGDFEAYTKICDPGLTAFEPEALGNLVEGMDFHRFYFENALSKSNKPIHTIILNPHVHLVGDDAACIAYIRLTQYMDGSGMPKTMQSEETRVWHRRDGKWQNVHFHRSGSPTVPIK
sequence,measurement,setting,value
YKKALHRQEAVDALYKKALHRQEAVDALYKKALHRQEAVDALYKKALHRQEAVDALYKKALHRQEAVDAL [AIP×5],beat-to-beat variability compared to control (non-LKB1 knockout) mice,[1]; 2-way Anova with Dunnett's,no statistically significant difference in beat-to-beat variability
same,suppression of beat-to-beat variability,"[1]; AAV-cTnT vector, FIG. 10",reduction in beat-to-beat variability; also recorded: effective in suppressing beat-to-beat variability
same,EC50,[2],114 nM
same,symptoms of CPVT (ectopy and/or ventricular tachycardia),[3],reduction in symptoms of CPVT
same,PLB phosphorylation (pPLB to PLB),[4],statistically significant decrease in PLB phosphorylation
